Entries after “also recorded” stand apart in the source; their conditions may differ. Marks after values point to notes of the source that are not given here. Blank lines part the entries; values can stand above or below the compound they belong to.
Columns and labels:
[1] = Stability in liquid nutritional type products during retort sterilization and room temperature storage; format: physicochemical
Protocol: In order to test the stability of N-acetyl-L-glutamine in a matrix similar to that found in liquid nutritional type products, the following procedure was followed. […] The product containing N-acetyl-L-glutamine was made according to the procedure set forth above in Example 1. The product containing glutamine was made in a similar manner, except […].79 kg) was substituted for N-acetyl-L-glutamine. The products were assessed for degradation before and after a retort sterilization process, which is typical for liquid nutritional processing (here, 128° C. for 5 minutes). The products were stored at room temperature (20-22° C.) and assessed for evidence of degradation at 1, 2 and 3 months. Glutamine, N-acetyl-L-glutamine and pyroglutamic acid (if present) were quantified at each process and time point. In order to analyze by HPLC for glutamine, N-acetyl-L-glutamine and pyroglutamic acid, samples were filtered as follows. A 5.0 mL aliquot was transferred to a 50 mL volumetric flask. Twenty drops of 1 M hydrochloric acid was added and the sample was diluted to volume with deionized water. An aliquot was filtered through a 0.45 micron filter (Millipore, Millex®-HV, 25 mm). The samples were analyzed by HPLC as described above (Heat Stability section). The total amount of pyroglutamic acid present in the protein formula, including both free pyroglutamic acid and N-terminal pyroglutamic acid, can be determined by the following method. Initially, samples were prepared as a water solution to a concentration of approximately 18 g total protein/L. A 20 microliter aliquot of the prepared sample material was placed in a 1.5 mL screw cap vial, and 980 microliters of a freshly prepared enzyme solution (0.05 M Tris, 0.005 M dithiothreitol, 0.001 M disodium ethylenediaminetetraacetic acid (EDTA), pH 8.0, containing 11 units of pyroglutamate aminopeptidase/mL) was added. The vial was tightly capped, and incubated at room temperature (21-24° C.) for 24 hours. The solution was then processed through a C-18 SPE cartridge as detailed below. For free pyroglutamic acid determination, the initial sample solution was diluted to a total protein content of 2-3 g/L in deionized water, and processed through a C-18 SPE cartridge. C-18 SPE (Solid Phase Extraction) cartridges (100 mg/1 mL size) were obtained from Burdick & Jackson, Muskegon, Mich. SPE cartridges were prepared for use with 2×5 volumes of methanol, and then rinsed with 2×5 volumes of deionized water. The 1 mL sample is then slowly applied, and flow-through material collected in a […] screw cap vial. Elution was completed by applying 2×500 microliters of deionized water, collecting pass through volume in the same vial. The eluate was mixed, and then an aliquot filtered through a 0.45 micrometer filter prior to HPLC analysis (25 mm, 0.45 micrometer filters were obtained from Gelman, Ann Arbor, Mich.). The HPLC system used had the following parameters: pump model G1312A, autosampler model G1313A, thermostatted column compartment model G1316A, diode array detector model G1315A, and peak integrator/data processor model […], all obtained from Agilent Technologies, Palo Alto, Calif. Column: 6.5×150 mm ION-310, 8 micrometer from Interaction Chromatography, San Jose, Calif. The system was pre-equilibrated in mobile phase (5 mN H2SO4) at 40° C. at 0.3 mL/min. prior to use. For analysis a 10 microliter aliquot of sample or standard was injected, and the column was eluted with mobile phase at 0.3 mL/min. and 40° C. Eluting materials were detected by UV absorption at 210 nm and 220 nm. The run time was 45 min. Unknown sample concentrations were determined by comparison to standards. Three aqueous solutions of pyroglutamic acid are usually sufficient as standards, i.e., 10, 20, and 40 mg/L (pyroglutamic acid obtained from Fluka, Milwaukee, Wis.).

[2] = Aqueous stability at various pH values, ambient temperature (HPLC); format: physicochemical; conditions: for GLN (glutamine) in glutamine solution / PGA (pyroglutamic acid) in glutamine solution: pH 6.0, 1 mg/mL
Protocol: HPLC analysis was conducted using an Inertsil® C8, 5 micrometer, 4.6×250 mm column (obtained from Keystone Scientific, Inc., Bellefonte, Pa.). The mobile phase was water adjusted to pH 2.2 with HCl (isocratic at 1 mL/minute). The injection volume was 10 microliters. Ultraviolet detection was at 214 nm. In order to test the stability of N-acetyl-L-glutamine in aqueous solutions at various pH values, the following procedure was followed. Aqueous solutions of N-acetyl-L-glutamine were prepared in 1 pH unit increments from pH 2.0 to 8.0. The pH of the solutions was adjusted with either hydrochloric acid or sodium hydroxide, as needed, just prior to final dilution (final concentration=1 mg/mL or 5.3 mM N-acetyl-L-glutamine). A single solution of glutamine was not pH adjusted (measured pH=6.0) and was prepared at 1 mg/mL or 6.8 mM glutamine. All solutions were sterile-filtered (Millipore Millex®-GS, 25 mm, 0.22 micrometer pore size, sterile) into autosampler vials and capped for storage at ambient temperature (17-25° C.). N-acetyl-L-glutamine samples were assessed by HPLC at various time points, from 1 to 180 days. The glutamine sample was assessed by HPLC at similar time points, from 1 to 45 days.

[3] = 1 month at room temperature after sterilization
[4] = 2 months at room temperature after sterilization
[5] = 3 months at room temperature after sterilization
[6] = Post-Sterilization (retort, 128° C. for 5 minutes)
[7] = pH 3.0, ambient temperature, 6 months

Glutamine in product with glutamine [1, 3]: 13.7 mmol/L product
pyroglutamic acid in product with glutamine ([1]; 1 month, calculated with response factor from glutamine standard): 92.9* mmol/L product
pyroglutamic acid in product with glutamine ([1]; 2 months, calculated with response factor from pyroglutamic acid standard): 79.8** mmol/L product
Glutamine in product with glutamine [1, 5]: none
pyroglutamic acid in product with glutamine ([1]; 3 months, calculated with response factor from pyroglutamic acid standard): 80.6** mmol/L product
Glutamine in product with glutamine [1, 6]: 34.2 mmol/L product
pyroglutamic acid in product with glutamine ([1]; Post-Sterilization, calculated with response factor from glutamine standard): 77.5* mmol/L product
pyroglutamic acid in product with glutamine ([1]; Pre-Sterilization, calculated with response factor from glutamine standard): 27.1* mmol/L product
Glutamine remaining as fraction of the original concentration ([1]; glutamine supplemented product, after the sterilization process): about ⅓
Glutamine in product with glutamine ([1]; liquid nutritional type product, Pre-Sterilization (theoretical 87.6)): 97.8 mmol/L product
GLN (glutamine) in glutamine solution ([2]; ambient temperature, 2 days): 100.0 height percent
PGA (pyroglutamic acid) in glutamine solution ([2]; ambient temperature, 2 days): none detected
GLN (glutamine) in glutamine solution ([2]; ambient temperature, 3 days): 99.8 height percent
PGA (pyroglutamic acid) in glutamine solution ([2]; ambient temperature, 3 days): 0.2 height percent
GLN (glutamine) in glutamine solution ([2]; ambient temperature, 7 days): 99.5 height percent
PGA (pyroglutamic acid) in glutamine solution ([2]; ambient temperature, 7 days): 0.5 height percent
GLN (glutamine) in glutamine solution ([2]; ambient temperature, 15 days): 99.0 height percent
PGA (pyroglutamic acid) in glutamine solution ([2]; ambient temperature, 15 days): 1.0 height percent
GLN (glutamine) in glutamine solution ([2]; ambient temperature, 30 days): 98.1 height percent
PGA (pyroglutamic acid) in glutamine solution ([2]; ambient temperature, 30 days): 1.9 height percent
GLN (glutamine) in glutamine solution ([2]; ambient temperature, 45 days): 96.7 height percent
PGA (pyroglutamic acid) in glutamine solution ([2]; ambient temperature, 45 days): 3.3 height percent
SMILES: NC(=O)CC[C@H](N)C(=O)O [Glutamine, glutamine]
Glutamine in product with glutamine [1, 4]: no glutamine was detected; also recorded: trace

SMILES: CC(=O)N[C@@H](CCC(N)=O)C(=O)O [N-acetyl-L-glutamine]
N-acetyl-L-glutamine in product with N-acetyl-L-glutamine [1, 3]: 89.8 mmol/L product
N-acetyl-L-glutamine in product with N-acetyl-L-glutamine [1, 4]: 94.1 mmol/L product
N-acetyl-L-glutamine in product with N-acetyl-L-glutamine [1, 5]: 89.3 mmol/L product
N-acetyl-L-glutamine in product with N-acetyl-L-glutamine [1, 6]: 89.8 mmol/L product
Degradation in the liquid nutritional type product (in words) ([1]; during sterilization or after 3 months room temperature storage): no degradation
N-acetyl-L-glutamine in product with N-acetyl-L-glutamine ([1]; liquid nutritional type product, Pre-Sterilization (theoretical 87.7)): 92.5 mmol/L product
Degradation of N-acetyl-L-glutamine ([2]; 1 mg/mL, all pH values (2.0 to 8.0), ambient temperature, through 7 days): no degradation
N-acetyl-L-glutamine remaining ([2]; pH 2.0, ambient temperature, 6 months): 55.7%
N-acetyl-L-glutamine remaining ([2]; pH 2.0, ambient temperature, 15 days): 97.0%
N-acetyl-L-glutamine remaining ([2]; pH 3.0, ambient temperature, 4 months): 94.2%
N-acetyl-L-glutamine remaining [2, 7]: 90.4%
N-acetyl-glutamic acid and 2,6-dioxopiperidinylacetamide (approximately equal levels) [2, 7]: about 5%
N-acetyl-glutamic acid and 2,6-dioxopiperidinylacetamide (approximately equal levels) ([2]; pH 3.0, ambient temperature, 15 days): about 0.15%
N-acetyl-glutamic acid and 2,6-dioxopiperidinylacetamide (approximately equal levels) ([2]; pH 3.0, ambient temperature, 30 days): about 1%
N-acetyl-L-glutamine remaining ([2]; pH 3.0, ambient temperature, through 90 days): > 95%
N-acetyl-L-glutamine remaining ([2]; pH 4.0, ambient temperature, six months): 97.9%
N-acetyl-L-glutamine remaining ([2]; pH 5.0 to 8.0, ambient temperature, 6 months): greater than 99.6%
